pIC50: −log10 of the molar value.
Assays:
[1] = tested on: 786-O cells; experiment: Cell growth test (MTT), 786-O; format: cell-based; conditions: Homo sapiens, 786-0, MTT test after 48 h, read-out: IC50 (concentration necessary to inhibit 50% of cell growth)
Protocol: (§1) The cell growth tests are carried out in transparent 96-well microplates (Greiner) after having seeded 100 μl/well of a cell solution having 2·10^5 cells/ml to 5·10^5 cells/ml (depending on the cell lines). After incubating for 24 h at 37° C. with 5% CO2, the culture medium is removed and replaced with solutions of the molecule to be tested at various concentrations. The cells are incubated with these molecules for an additional 48 h at 37° C. with 5% CO2. After elimination of the medium, the cells are washed with blank RPMI (Gibco, Invitrogen) then incubated with 3-(4,5-dimethylthiazol-2-yl)-2,5-diphenyltetrazolium bromide or MTT (0.5 mg/ml final concentration) for 4 h at 37° C. with 5% CO2. MTT (Sigma Aldrich) makes it possible to estimate the viability of the cells by measuring the activity of a mitochondrial enzyme. Indeed, in living cells, mitochondrial dehydrogenases are capable of cleaving the tetrazolium ring, thus leading to the formation of formazan crystals that are insoluble in an aqueous medium. These crystals are dissolved with the addition of a solubilizing solution (isopropanol, 10% Triton X100, 0.1 N HCl). After stirring, the absorbance is measured at 570 nm using the FLUOstar OPTIMA microplate reader. […]
(§2) The viability of the cells was evaluated using an MTT test after 48 h of exposure with various concentrations of molecules (from 100 μM to 0.001 μM). […]

[2] = tested on: MCF-7 cells; experiment: Cell growth test (MTT), MCF-7; format: cell-based; conditions: Homo sapiens, MCF7; MCF-7, MTT test after 48 h; read-out: IC50 (concentration necessary to inhibit 50% of cell growth)
Protocol: as §1, §2

[3] = biological target: T1, recombinant human LIMK1 (Homo sapiens, UniProt P53667); experiment: LIMK1 inhibition reversibility assay (size-exclusion chromatography); format: biochemical; conditions: 2 μM compound, input vs flow-through after size-exclusion chromatography
T1 construct: 6His (N); purchased Millipore 14-656
Protocol: N-terminal 6H s-tagged recombinant human LIMK1 (Millipore #14-656, 62.5 ng) was incubated with […] Compound 1 (or equivalent amount of DMSO) for 10 minutes at 4° C. in a final volume of 100 μL. Size-exclusion chromatography of this mixture was then performed using 1 ml Biospin P-6 column (Biorad, equilibrated in 20 mM MOPS pH=7.0, 1 mM EDTA, 0.01% NP-40, 5% glycerol, 0.1% β-mercaptoethanol, 1 mg·ml^−1 Bovine Serum Albumin). LIMK1 kinase activity in input and flow-through were then assayed by radiometric LIMK1 kinase assay.
LIMK1 inhibition reversibility was assayed in vitro, in the conditions of Example 2, in the presence of 2 μM Compound 1 (H06), prior (‘input’) or after size-exclusion chromatography (‘flow-through’). Error bars represent standard error mean.

[4] = tested on: microtubules of HeLa cells; experiment: Stability of microtubules at low temperature (4° C.); format: cell-based, Human; conditions: 2 h with compound then 30 minutes at 4° C.
Protocol: FIG. 3 represents the effect of the Compound 1 of the invention on the stability of microtubules at low temperature. The HeLa cells are incubated with paclitaxel or without, with the Compound 1 of the invention, for 2 h, then exposed for 30 minutes at 4° C. The amount of tubulin in the cells treated with the Compound 1 of the invention is measured with a microplate reader, then reported as a percentage of the amount of tubulin measured in the wells containing the cells treated with paclitaxel (100%);
In the living cell, microtubules are dynamic structures, which oscillate between assembling and disassembling phases. Various types of tests may be carried out in order to assess the stabilizing effect of the molecules on the microtubule network. Thus, the binding of paclitaxel to the microtubules, or the binding of stabilizing proteins such as STOP proteins (Bosc et al., 2003) may protect the microtubule network from a depolymerization induced by an incubation of the cells at 4° C. Furthermore, molecules capable of slowing down the dynamics of the microtubules may be identified by analyzing the resistance of cell microtubules to a depolymerization induced by nocodazole. In the absence of a stabilizing compound, the microtubules depolymerize in the presence of nocodazole (FIG. 2). […]

[5] = tested on: microtubules of HeLa cells; experiment: Resistance of microtubules to nocodazole-induced depolymerization; format: cell-based, Human; conditions: 2 h with compound then 30 minutes nocodazole
Protocol: 6. a step of analysis of the effect of the compound to be tested on the dynamics of the microtubule network. For this, HeLa cells are incubated for 2 h with the compound to be tested, then optionally treated with 10 μM nocodazole for 30 minutes.
FIG. 4 represents the effect of nocodazole on the microtubules of the HeLa cells treated with the Compound 1 of the invention. The HeLa cells are incubated with paclitaxel or without, with the Compound 1 of the invention for 2 h, then exposed for 30 minutes to nocodazole. The amount of tubulin in the cells treated with the Compound 1 of the invention is measured with a microplate reader, then reported as a percentage of the amount of tubulin measured in the wells containing the cells treated with paclitaxel;
In the living cell, microtubules are dynamic structures, which oscillate between assembling and disassembling phases. Various types of tests may be carried out in order to assess the stabilizing effect of the molecules on the microtubule network. Thus, the binding of paclitaxel to the microtubules, or the binding of stabilizing proteins such as STOP proteins (Bosc et al., 2003) may protect the microtubule network from a depolymerization induced by an incubation of the cells at 4° C. […]

[6] = tested on: mitochondria of HeLa cells; experiment: Effect on location and morphology of the mitochondria (MitoTracker staining); format: cell-based, Human; conditions: 2 h of treatment at 25 μM
Protocol: As for tubulin staining, the cells are grown on glass coverslips and incubated at 37° C. with 5% CO2. Three days after seeding, MitoTracker® Red CMXRos (Molecular Probes, Invitrogen) is added to the culture medium in order to reach a final concentration of 250 nM. The cells are then incubated for 30 minutes at 37° C. with 5% CO2. This marker passively diffuses through the plasma membrane and accumulates into the active mitochondria. After elimination of the medium, the cells are washed with warm medium then fixed by addition of a solution of PBS/3.7% formaldehyde for 30 minutes at 37° C. The cells are rinsed with PBS, then can be permeabilized with a solution of PBS/0.2% Triton X100 for 15 minutes at room temperature if other immunofluorescence staining are needed.

T1 sequence (P53667 whole entry): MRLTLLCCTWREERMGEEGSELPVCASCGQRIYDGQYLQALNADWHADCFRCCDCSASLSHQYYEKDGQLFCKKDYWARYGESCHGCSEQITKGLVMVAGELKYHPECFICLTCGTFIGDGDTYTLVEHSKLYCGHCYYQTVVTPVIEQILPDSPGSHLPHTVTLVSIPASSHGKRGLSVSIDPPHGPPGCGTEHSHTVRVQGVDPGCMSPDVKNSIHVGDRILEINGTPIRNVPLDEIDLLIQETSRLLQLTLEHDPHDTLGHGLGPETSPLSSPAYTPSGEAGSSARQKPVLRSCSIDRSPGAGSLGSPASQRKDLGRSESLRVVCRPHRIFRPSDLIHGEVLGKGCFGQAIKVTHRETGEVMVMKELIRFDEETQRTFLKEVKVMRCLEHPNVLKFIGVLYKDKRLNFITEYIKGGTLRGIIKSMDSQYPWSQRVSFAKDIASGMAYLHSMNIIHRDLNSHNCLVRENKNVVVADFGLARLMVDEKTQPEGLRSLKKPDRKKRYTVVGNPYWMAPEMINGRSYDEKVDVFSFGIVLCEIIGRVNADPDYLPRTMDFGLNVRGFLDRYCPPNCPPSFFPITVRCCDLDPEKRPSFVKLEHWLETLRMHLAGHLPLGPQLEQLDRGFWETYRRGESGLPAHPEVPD

Cc1c2cc[nH]c(=O)c2c(C)c2c1[nH]c1ccc(OC(=O)c3ccccc3)cc12 [Compound 1, 9-benzoyloxy-5,11-dimethyl-2H,6H-pyrido[4,3-b]carbazol-1-one]
pIC50 [1]: 4.26 | pIC50 [2]: 4.21 | Reversibility of LIMK1 inhibition in vitro [3]: reversible | Protection of microtubules from cold-induced depolymerization [4]: not able to protect the microtubules | Protection of microtubules from nocodazole-induced depolymerization [5]: prevents, in a dose-dependent manner | Mitochondrial phenotype of sodium azide type [6]: does not induce the mitochondrial phenotype

From patent publication US8604048B2, “Pyridocarbazole type compounds and applications thereof” (Centre National de la Recherche Scientifique, priority 2009, dated 2013)
